In US10328030B2, “Compositions and methods of use for treatment of mammalian diseases” (priority 2004, dated 2019):

What was measured:
NCI-H23 lung cells = test: In vitro human tumor screen, 3H-thymidine assay; format: cell-based; settings: positive control, doxorubicin 1 μM
[1] = Metabolic clearance and tolerability of iron dextran, intravenous infusion; parameters: species or system cynomolgus monkeys (Macaca fascicularis); settings: cynomolgus monkey, in vivo
Procedure: Experiments on metabolic clearance rates done on cynomolgus monkeys (species Macaca fascicularis) have shown the safe use of large dosages of elemental iron derived from iron dextran. […] The administered iron dextran remained in the monkey plasma for at least 120 hours, at milligram levels. […] (See, U.S. application Ser. No. 10/888,576 incorporated herein in its entirety.) The monkey model clears the iron dextran from the system much more very rapidly, as compared to humans, because of a higher metabolic rate. Therefore, a longer plasma residence time is anticipated in humans, as has been shown in research, such as, for example, Henderson & Hillman, (1969).
Experiments on metabolic clearance rates done on cynomolgus monkeys (species Macaca fascicularis) have shown the safe use of large dosages of elemental iron derived from iron dextran. […] The monkey model clears the iron dextran from the system much more very rapidly, as compared to humans, because of a higher metabolic rate. Therefore, a longer plasma residence time is anticipated in humans, as has been shown in research, such as, for example, Henderson & Hillman, (1969).

[2] = in vivo; cited from earlier work

| Compound | inhibitory effect (in words) (NCI-H23 lung cells) | side effects (in words) [1] | time remaining in plasma ([1]; iv) | clearance rate [2] [mg/h] | time to clearance [2] [days] |
| --- | --- | --- | --- | --- | --- |
| COc1cccc2c1C(=O)c1c(O)c3c(c(O)c1C2=O)C[C@@](O)(C(=O)CO)C[C@@H]3O[C@H]1C[C@H](N)[C@H](O)[C@H](C)O1 [doxorubicin] | high inhibitory effect | – | – | – | – |
| iron dextran [Base Compound] | – | few negative side effects, i.e. abdominal swelling | at least 120 hours | 10 to 20 | ≤ 3 |
